Results: patent US10093611B2, “Benzocycloalkenes as antifungal agents” (Bayer Intellectual Property GmbH, priority 2010, dated 2018)

Columns and labels:
[1] = log P by HPLC on reversed-phase column (C 18), EEC Directive 79/831 Annex V.A8; format: physicochemical; conditions: C 18 reversed phase, 40° C., 0.1% aqueous formic acid and acetonitrile gradient
Protocol: In table 1, the log P values were determined in accordance with EEC Directive 79/831 Annex V.A8 by HPLC (High Performance Liquid Chromatography) on a reversed-phase column (C 18), using the method described below: Temperature: 40° C.; Mobile phases: 0.1% aqueous formic acid and acetonitrile; linear gradient from 10% acetonitrile to 90% acetonitrile. Calibration was carried out using unbranched alkan-2-ones (comprising 3 to 16 carbon atoms) with known log P values (determination of the log P values by the retention times using linear interpolation between two successive alkanones). lambda-max-values were determined using UV-spectra from 200 nm to 400 nm and the peak values of the chromatographic signals.

[2] = system: Leptosphaeria nodorum; experiment: In vivo preventive test on Leptosphaeria nodorum (wheat); conditions: 500 ppm of active ingredient, evaluated 8 days after inoculation
Protocol: EXAMPLE D: IN VIVO PREVENTIVE TEST ON LEPTOSPHAERIA NODORUM (WHEAT) Solvent: 49 parts by weight of N,N-dimethylacetamide Emulsifier: 1 part by weight of alkylaryl polyglycol ether To produce a suitable preparation of active compound, 1 part by weight of active compound or the compound combination is mixed with the stated amounts of solvent and emulsifier, and the concentrate is diluted with water to the desired concentration. To test for protective activity, young plants are sprayed with a preparation of active compound or active compound combination at the stated rate of application. After the spray coating has dried on, the plants are sprayed with a spore suspension of Leptosphaeria nodorum. The plants remain for 48 hours in an incubation cabinet at 20° C. and a relative atmospheric humidity of 100%. The plants are placed in a greenhouse at a temperature of approximately 22° C. and a relative atmospheric humidity of approximately 80%. The test is evaluated 8 days after the inoculation. 0% means an efficacy which corresponds to that of the control, while an efficacy of 100% means that no disease is observed. Under these conditions, good (at least 75%) to total protection is observed at a dose of 500 ppm of active ingredient with the following compounds from table D: Under the same conditions, excellent protection (greater than 94%) is observed at a dose of 500 ppm of active ingredient with compound 2, whereas poor protection (less than 30%) is observed with the isosteric analogue compound CMP1 claimed in WO-2009/016218 as in table D2.

[3] = system: Sphaerotheca fuliginea; experiment: In vivo preventive test on Sphaerotheca fuliginea (cucumbers); conditions: 500 ppm of active ingredient, evaluated 7 days after inoculation
Protocol: EXAMPLE H: IN VIVO PREVENTIVE TEST ON SPHAEROTHECA FULIGINEA (CUCUMBERS) Solvent: 24.5 parts by weight of acetone • 24.5 parts by weight of N,N-dimethylacetamide Emulsifier: 1 part by weight of alkylaryl polyglycol ether To produce a suitable preparation of active compound, 1 part by weight of active compound is mixed with the stated amounts of solvent and emulsifier, and the concentrate is diluted with water to the desired concentration. To test for protect activity, young plants are sprayed with the preparation of active compound at the stated rate of application. After the spray coating has dried on, the plants are inoculated with an aqueous spore suspension of Sphaerotheca fuliginea. The plants are then placed in a greenhouse at approximately 23° C. and a relative atmospheric humidity of approximately 70%. The test is evaluated 7 days after the inoculation. 0% means an efficacy which corresponds to that of the untreated control, while an efficacy of 100% means that no disease is observed. Under these conditions, high (at least 90%) to total protection is observed at a dose of 100 ppm of active ingredient with the following compounds from table H: Under the same conditions, high protection (greater than 80%) is observed at a dose of 500 ppm of active ingredient with compound 7, whereas poor protection (less than 20%) is observed with the isosteric analogue compound CMP2 claimed in WO-2009/016218 as in table H2.

[4] = system: Alternaria solani; experiment: In vivo preventive test on Alternaria solani (tomato); conditions: 500 ppm of active ingredient, evaluated 7 days after inoculation
Protocol: EXAMPLE A: IN VIVO PREVENTIVE TEST ON ALTERNARIA SOLANI (TOMATO) Solvent: 49 parts by weight of N,N-dimethylformamide Emulsifier: 1 part by weight of Alkylarylpolyglycolether To produce a suitable preparation of active compound, 1 part by weight of active compound is mixed with the stated amounts of solvent and emulsifier, and the concentrate is diluted with water to the desired concentration. To test for preventive activity, young plants are sprayed with the preparation of active compound at the stated rate of application. One day after this treatment, the plants are inoculated with an aqueous spore suspension of Alternaria solani. The plants remain for one day in an incubation cabinet at approximately 22° C. and a relative atmospheric humidity of 100%. Then the plants are placed in an incubation cabinet at approximately 20° C. and a relative atmospheric humidity of 96%. The test is evaluated 7 days after the inoculation. 0% means an efficacy which corresponds to that of the control while an efficacy of 100% means that no disease is observed. Under these conditions, good (at least 80%) to total protection is observed at a dose of 500 ppm of active ingredient with the following compounds from table A: […]

[5] = system: Pyrenophora teres; experiment: In vivo preventive test on Pyrenophora teres (barley); conditions: 500 ppm of active ingredient, evaluated 7-9 days after inoculation
Protocol: EXAMPLE F: IN VIVO PREVENTIVE TEST ON PYRENOPHORA TERES (BARLEY) Solvent: 49 parts by weight of N,N-dimethylformamide Emulsifier: 1 part by weight of Alkylarylpolyglycolether To produce a suitable preparation of active compound, 1 part by weight of active compound is mixed with the stated amounts of solvent and emulsifier, and the concentrate is diluted with water to the desired concentration. To test for preventive activity, young plants are sprayed with the preparation of active compound at the stated rate of application. One day after this treatment, the plants are inoculated with an aqueous spore suspension of Pyrenophora teres. The plants remain for 48 hours in an incubation cabinet at 22° C. and a relative atmospheric humidity of 100%. Then the plants are placed in a greenhouse at a temperature of approximately 20° C. and a relative atmospheric humidity of approximately 80%. The test is evaluated 7-9 days after the inoculation. 0% means an efficacy which corresponds to that of the untreated control while an efficacy of 100% means that no disease is observed. Under these conditions, high (at least 90%) to total protection is observed at a dose of 500 ppm of active ingredient with the following compounds from table F: […]

| Structure (SMILES) | logP [1] | Efficacy [2] [%] | Efficacy [3] [%] | Efficacy ([3]; listed as compound 7) | Efficacy [4] [%] | Efficacy [5] [%] | Efficacy ([2]; listed as compound 2) |
| --- | --- | --- | --- | --- | --- | --- | --- |
| Cn1nc(C(F)F)c(C(=O)N(CC2Cc3ccccc3O2)C2CC2)c1Cl (stereo not drawn) [Example 21] | 3.04 | – | – | – | – | – | – |
| CCc1nn(C)c(F)c1C(=O)N(C1CC1)C1CCc2ccccc2C1 (stereo not drawn) [Example 5] | 3.35 | 78 | – | – | 95 | 95 | – |
| Cn1nc(C(F)F)c(C(=O)N(C2CC2)C2Cc3ccccc3C2)c1F [Example 2] | 3.19 | 94 | – | – | 94 | – | greater than 94% |
| Cn1nc(C(F)F)c(C(=S)N(C2CC2)C2CCc3ccccc3C2)c1F (stereo not drawn) [Example 9] | 4.21 | – | – | – | 93 | 100 | – |
| Cn1nc(C(F)F)c(C(=O)N(CC2COc3ccccc3C2)C2CC2)c1F (stereo not drawn) [Example 20] | 3.00 | – | – | – | 80 | 100 | – |
| Cc1cc(C(=O)N(C2CC2)C2CCc3ccccc3C2)c(C)o1 (stereo not drawn) [Example 3] | 4.01 | – | – | – | – | – | – |
| Cn1nc(C(F)F)c(C(=O)N(C2CC2)C2Cc3ccccc3C2)c1Cl [Example 1] | 3.35 | – | – | – | 89 | – | – |
| Cc1cc(C(=O)N(C2CC2)C(C)C2Cc3ccccc3C2)c(C)o1 (stereo not drawn) [Example 10] | 4.34 | – | – | – | 95 | 90 | – |

Second part, led by results:

| logP [1] | Structure (SMILES) | Efficacy [2] [%] | Efficacy [3] [%] | Efficacy ([3]; listed as compound 7) | Efficacy [4] [%] | Efficacy [5] [%] | Efficacy ([2]; listed as compound 2) |
| --- | --- | --- | --- | --- | --- | --- | --- |
| 3.48 | Cn1nc(C(F)F)c(C(=O)N(C2CC2)C2CCc3ccccc3C2)c1F (stereo not drawn) [Example 7] | 94 | 80 | greater than 80% | 100 | 100 | – |
| 2.86 | Cn1nc(C(F)F)c(C(=O)N(CC2Cc3ccccc3O2)C2CC2)c1F (stereo not drawn) [Example 19] | – | – | – | – | 100 | – |
| 4.82 | CC(C1CCc2ccccc2C1)N(C(=O)c1ccsc1I)C1CC1 (stereo not drawn) [Example 15] | – | – | – | – | – | – |
| 3.73 | Cn1cc(C(=S)N(C2CC2)C2CCc3ccccc3C2)c(C(F)F)n1 (stereo not drawn) [Example 8] | – | – | – | – | 95 | – |
| 2.54 | Cn1cc(C(=O)N(CC2Cc3ccccc3O2)C2CC2)c(C(F)F)n1 (stereo not drawn) [Example 18] | – | – | – | – | 95 | – |
| 3.00 | Cc1nn(C)c(F)c1C(=O)N(C1CC1)C1CCc2ccccc2C1 (stereo not drawn) [Example 4] | – | – | – | – | 90 | – |
| 3.08 | Cn1cc(C(=O)N(C2CC2)C2CCc3ccccc3C2)c(C(F)F)n1 (stereo not drawn) [Example 6] | – | – | – | 95 | 100 | – |
